Source: ChEMBL document CHEMBL1201862, “PubChem BioAssay data set” (2004)
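Assay format: 96-well plates, 48-hour exposure. Abbreviation: GI50, concentration required for 50% inhibition of growth.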 Calls of active or inactive are those of the source. Rule as the data show it: active = GI50 up to about 1.1 µM and inactive = higher.

Columns and labels:
Assay in all cases: NCI anticancer screen, dose series, 48 h
IGROV-1 = tested on: IGROV-1
OVCAR-3 = tested on: OVCAR-3
PC-3 = tested on: PC-3
SK-OV-3 = tested on: SK-OV-3
SK-MEL-28 = tested on: SK-MEL-28
TK-10 = tested on: TK-10
OVCAR-4 = tested on: OVCAR-4
K562 = tested on: K562
RXF 393 = tested on: RXF 393
MDA-MB-435 = tested on: MDA-MB-435
NCI-H522 = tested on: NCI-H522
SW-620 = tested on: SW-620
SR = tested on: SR
NCI-H226 = tested on: NCI-H226
SNB-75 = tested on: SNB-75
CCRF-CEM = tested on: CCRF-CEM
SF-539 = tested on: SF-539
SF-295 = tested on: SF-295
SNB-19 = tested on: SNB-19
SF-268 = tested on: SF-268

Measured: GI50

COc1cc2nn(-c3ccccc3)nc2c2nonc12
inactive: IGROV-1 > 100 µM | OVCAR-3 > 100 µM | PC-3 > 100 µM | SK-OV-3 > 100 µM | SK-MEL-28 > 100 µM | TK-10 > 100 µM | OVCAR-4 95.9 µM | K562 > 100 µM | RXF 393 > 100 µM | MDA-MB-435 > 100 µM | NCI-H522 > 100 µM | SW-620 > 100 µM | SR > 100 µM | NCI-H226 > 100 µM | SNB-75 > 100 µM | CCRF-CEM > 100 µM | SF-539 87.5 µM | SF-295 > 100 µM | SNB-19 > 100 µM | SF-268 > 100 µM

CC(=O)N(CCCCNC(=O)C(F)(F)F)CCCNC(=O)C(F)(F)F
inactive: IGROV-1 > 100 µM | OVCAR-3 > 100 µM | PC-3 > 100 µM | SK-OV-3 > 100 µM | SK-MEL-28 > 100 µM | TK-10 > 100 µM | OVCAR-4 > 100 µM | K562 > 100 µM | RXF 393 > 100 µM | MDA-MB-435 > 100 µM | NCI-H522 > 100 µM | SW-620 > 100 µM | SR > 100 µM | NCI-H226 > 100 µM | SNB-75 > 100 µM | CCRF-CEM > 100 µM | SF-539 > 100 µM | SF-295 > 100 µM | SNB-19 > 100 µM | SF-268 > 100 µM

c1cc2c(cc1C1=NCCN1)c1cc(C3=NCCN3)ccc1n2CC1CCCCC1
inactive: IGROV-1 18.2 µM | OVCAR-3 21.2 µM | PC-3 21.5 µM | SK-OV-3 18.5 µM | SK-MEL-28 10.4 µM | TK-10 51.3 µM | OVCAR-4 22.5 µM | K562 14.8 µM | RXF 393 39.5 µM | MDA-MB-435 18 µM | NCI-H522 4.94 µM | SW-620 20.4 µM | SR 7.26 µM | NCI-H226 12.3 µM | SNB-75 11.6 µM | CCRF-CEM 11.5 µM | SF-539 3.65 µM | SF-295 32.1 µM | SNB-19 5.9 µM | SF-268 4.31 µM

C[N+](C)(CCCn1ccnc1[N+](=O)[O-])CCCn1ccnc1[N+](=O)[O-]
inactive: IGROV-1 > 100 µM | OVCAR-3 > 100 µM | PC-3 > 100 µM | SK-OV-3 > 100 µM | SK-MEL-28 > 100 µM | TK-10 > 100 µM | OVCAR-4 > 100 µM | K562 > 100 µM | RXF 393 > 100 µM | MDA-MB-435 > 100 µM | NCI-H522 > 100 µM | SW-620 > 100 µM | SR > 100 µM | NCI-H226 > 100 µM | SNB-75 > 100 µM | CCRF-CEM > 100 µM | SF-539 > 100 µM | SF-295 > 100 µM | SF-268 > 100 µM

c1ccc2c(CC3NCCN3)cccc2c1
inactive: IGROV-1 > 100 µM | OVCAR-3 > 100 µM | PC-3 > 100 µM | SK-OV-3 > 100 µM | SK-MEL-28 > 100 µM | TK-10 > 100 µM | OVCAR-4 > 100 µM | K562 > 100 µM | RXF 393 > 100 µM | MDA-MB-435 > 100 µM | NCI-H522 > 100 µM | SW-620 > 100 µM | SR > 100 µM | NCI-H226 > 100 µM | SNB-75 > 100 µM | CCRF-CEM > 100 µM | SF-539 > 100 µM | SF-295 > 100 µM | SNB-19 > 100 µM | SF-268 > 100 µM

CC(C)OC(=O)c1ccc(NCc2cc(O)ccc2O)cc1
inactive: IGROV-1 3.45 µM | OVCAR-3 1.47 µM | PC-3 1.8 µM | SK-OV-3 17.3 µM | SK-MEL-28 8 µM | TK-10 4.53 µM | OVCAR-4 5.05 µM | RXF 393 1.32 µM | MDA-MB-435 2.06 µM | SW-620 4.86 µM | NCI-H226 3.21 µM | SNB-75 4.61 µM | SF-539 1.53 µM | SF-295 6.3 µM | SNB-19 3.3 µM | SF-268 4.07 µM
active: K562 0.946 µM | NCI-H522 0.21 µM | SR 1.06 µM | CCRF-CEM 0.27 µM

c1ccc(CSc2nc(N3CCOCC3)c3cn[nH]c3n2)cc1
active: CCRF-CEM 0.0438 µM
inactive: IGROV-1 10.2 µM | OVCAR-3 27.7 µM | PC-3 13.4 µM | SK-OV-3 25 µM | SK-MEL-28 19.1 µM | TK-10 18.5 µM | OVCAR-4 40.7 µM | K562 16.2 µM | RXF 393 6.1 µM | MDA-MB-435 17.5 µM | NCI-H522 15.6 µM | SW-620 25.9 µM | SR 10.5 µM | NCI-H226 17 µM | SNB-75 30.4 µM | SF-539 21 µM | SF-295 24.4 µM | SNB-19 24.7 µM | SF-268 20.4 µM

CC1(C)OCC(CO)(Nc2nc(N3CC3)nc(N3CC3)n2)CO1
inactive: IGROV-1 20.6 µM | OVCAR-3 20.4 µM | PC-3 17.9 µM | SK-OV-3 5.78 µM | SK-MEL-28 19.5 µM | TK-10 24.6 µM | OVCAR-4 18.8 µM | K562 12.7 µM | RXF 393 13.2 µM | MDA-MB-435 19.5 µM | NCI-H522 13.2 µM | SW-620 14.5 µM | NCI-H226 8.13 µM | SNB-75 6.58 µM | CCRF-CEM 1.16 µM | SF-539 4.18 µM | SF-295 2.96 µM | SNB-19 11.2 µM | SF-268 4.07 µM
active: SR 0.483 µM

CCOC(=O)C(=O)C(/C(=N/N(C)C)C(=O)Nc1ccc(C)cc1C)c1nc2ccccc2nc1O (centres undefined)
inactive: IGROV-1 > 100 µM | OVCAR-3 > 100 µM | PC-3 > 100 µM | SK-OV-3 > 100 µM | SK-MEL-28 > 100 µM | TK-10 > 100 µM | OVCAR-4 > 100 µM | K562 > 100 µM | RXF 393 > 100 µM | MDA-MB-435 > 100 µM | NCI-H522 > 100 µM | SW-620 > 100 µM | SR > 100 µM | NCI-H226 > 100 µM | SNB-75 > 100 µM | CCRF-CEM > 100 µM | SF-539 > 100 µM | SF-295 > 100 µM | SNB-19 > 100 µM | SF-268 > 100 µM

Cc1nc(C)c(N2CCN([N+](=O)[O-])CC2)c(O)n1
inactive: IGROV-1 > 100 µM | OVCAR-3 > 100 µM | PC-3 > 100 µM | SK-OV-3 > 100 µM | SK-MEL-28 > 100 µM | TK-10 > 100 µM | OVCAR-4 > 100 µM | K562 > 100 µM | RXF 393 > 100 µM | MDA-MB-435 > 100 µM | NCI-H522 > 100 µM | SW-620 > 100 µM | SR > 100 µM | NCI-H226 > 100 µM | CCRF-CEM > 100 µM | SF-539 > 100 µM | SF-295 > 100 µM | SNB-19 > 100 µM | SF-268 > 100 µM
active: SNB-75 < 0.01 µM

CCOC(=O)C(=CNc1ccc(N(C2=NCC(C)S2)c2ccc(F)c(Cl)c2)cc1)C(=O)OCC (centres undefined)
inactive: IGROV-1 20.5 µM | OVCAR-3 20.9 µM | PC-3 22.4 µM | SK-OV-3 21.9 µM | SK-MEL-28 18.7 µM | TK-10 21.8 µM | OVCAR-4 24.8 µM | K562 44.1 µM | RXF 393 6.05 µM | MDA-MB-435 24.1 µM | NCI-H522 15.7 µM | SW-620 20.8 µM | SR 21.8 µM | NCI-H226 18.1 µM | SNB-75 20.4 µM | CCRF-CEM 7.93 µM | SF-539 25.6 µM | SF-295 25.4 µM | SNB-19 21.8 µM | SF-268 22.9 µM

COCN1CCN=c2c1c1c3c(c4ccccc4n23)CCC1
inactive: IGROV-1 > 100 µM | OVCAR-3 > 100 µM | PC-3 > 100 µM | SK-OV-3 > 100 µM | SK-MEL-28 > 100 µM | TK-10 > 100 µM | OVCAR-4 > 100 µM | K562 > 100 µM | RXF 393 > 100 µM | MDA-MB-435 > 100 µM | NCI-H522 > 100 µM | SW-620 > 100 µM | SR > 100 µM | NCI-H226 10.7 µM | SNB-75 > 100 µM | CCRF-CEM > 100 µM | SF-539 > 100 µM | SF-295 > 100 µM | SNB-19 > 100 µM | SF-268 > 100 µM

CCOC(=O)c1nc2cc(F)c(N3CCOCC3)cc2[nH]c1=O
inactive: IGROV-1 80.9 µM | OVCAR-3 > 100 µM | PC-3 > 100 µM | SK-OV-3 > 100 µM | SK-MEL-28 > 100 µM | TK-10 > 100 µM | OVCAR-4 > 100 µM | K562 > 100 µM | RXF 393 > 100 µM | MDA-MB-435 > 100 µM | NCI-H522 76 µM | SW-620 > 100 µM | SR 36.3 µM | NCI-H226 90.8 µM | SNB-75 > 100 µM | CCRF-CEM 96.4 µM | SF-539 > 100 µM | SF-295 > 100 µM | SNB-19 > 100 µM | SF-268 > 100 µM

C#CC1(O)CCC2[C@@H]3CCc4cc(Oc5nc(F)nc(-c6c(C)c(C(=O)OCC)n7ccccc67)n5)ccc4C3CC[C@@]21C (some centres undefined)
inactive: IGROV-1 > 100 µM | OVCAR-3 > 100 µM | PC-3 > 100 µM | SK-OV-3 > 100 µM | SK-MEL-28 > 100 µM | TK-10 > 100 µM | OVCAR-4 > 100 µM | K562 29.6 µM | RXF 393 > 100 µM | MDA-MB-435 > 100 µM | NCI-H522 > 100 µM | SW-620 > 100 µM | SR > 100 µM | NCI-H226 > 100 µM | SNB-75 > 100 µM | CCRF-CEM 61 µM | SF-539 > 100 µM | SF-295 > 100 µM | SNB-19 > 100 µM | SF-268 > 100 µM
